Measurements reported in patent publication US5840684A, “Glycopeptide antibiotic derivatives” (Eli Lilly and Company, priority 1995, dated 1998).
In brackets after ≈: the same amount, converted by molar mass.

Assays:
[1] = test system: Staphylococcus aureus S13E; type: cell-based
Experimental: (§1) The MIC's were determined using a standard broth micro-dilution assay.

[2] = test system: Staphylococcus aureus SA1199B; type: cell-based
Experimental: as §1

[3] = test system: Entercoccus faecium 180-1; experiment: broth micro-dilution MIC; type: cell-based
Experimental: as §1

[4] = test system: Staphylococcus aureus 446; experiment: broth micro-dilution MIC; type: cell-based
Experimental: as §1

[5] = test system: Staphylococcus aureus 447; experiment: broth micro-dilution MIC; type: cell-based
Experimental: as §1

[6] = test system: Staphylococcus aureus 489; experiment: broth micro-dilution MIC; type: cell-based
Experimental: as §1

[7] = test system: Staphylococcus aureus SA1199A; experiment: broth micro-dilution MIC; type: cell-based
Experimental: as §1

[8] = test system: Staphylococcus aureus X400; experiment: broth micro-dilution MIC; type: cell-based
Experimental: as §1

[9] = test system: Staphylococcus aureus X778; experiment: broth micro-dilution MIC; type: cell-based
Experimental: as §1

[10] = test system: Streptococcus pyogenes C203; experiment: broth micro-dilution MIC; type: cell-based
Experimental: as §1

Entercoccus faecium 180 = experiment: broth micro-dilution MIC; type: cell-based; settings: Entercoccus faecium 180
Experimental: (§2) The formula I compounds have in vitro and in vivo activity against Gram-positive pathogenic bacteria. The MIC's were determined using a standard broth micro-dilution assay.

Entercoccus faecium 2041 = experiment: broth micro-dilution MIC; type: cell-based; settings: Entercoccus faecium 2041
Experimental: as §2

[11] = test system: Enterococcus gallinarum 245; experiment: broth micro-dilution MIC; type: cell-based; settings: Enterococcus gallinarum 245
Experimental: as §2

[12] = test system: Haemophilus influenzae RD; experiment: broth micro-dilution MIC; type: cell-based; settings: Haemophilus influenzae RD
Experimental: as §2

[13] = test system: Staphylococcus epidermidis 270; experiment: broth micro-dilution MIC; type: cell-based
Experimental: as §2

[14] = test system: Staphylococcus haemolyticus 105; experiment: broth micro-dilution MIC; type: cell-based
Experimental: as §2

[15] = test system: Staphylococcus haemolyticus 415; experiment: broth micro-dilution MIC; type: cell-based
Experimental: as §2

[16] = test system: Streptococcus pneumoniae P1; experiment: broth micro-dilution MIC; type: cell-based
Experimental: as §2

[17] = test system: vancomycin-resistant enterococci; experiment: broth micro-dilution, mean geometric MIC; type: cell-based, Enterococcus faecium and Enterococcus faecalis; settings: enterococci, 24-hour incubation
[18] = test system: vancomycin-susceptible enterococci; experiment: broth micro-dilution, mean geometric MIC; type: cell-based, Enterococcus faecium and Enterococcus faecalis; settings: enterococci, 24-hour incubation
Entercoccus faecium 276 = experiment: broth micro-dilution MIC; type: cell-based
Experimental: as §1

[19] = test system: Staphylococcus aureus SA1199; experiment: broth micro-dilution MIC; type: cell-based
Experimental: as §1

CNC(CC(C)C)C(=O)NC1C(=O)NC(CC(N)=O)C(=O)NC2C(=O)NC3C(=O)NC(C(=O)NC(C(=O)O)c4cc(O)cc(O)c4-c4cc3ccc4O)C(OC3CC(C)(N)C(O)C(C)O3)c3ccc(c(Cl)c3)Oc3cc2cc(c3OC2OC(CO)C(O)C(O)C2OC2CC(C)(NCc3ccc(-c4ccccc4C)cc3)C(O)C(C)O2)Oc2ccc(cc2Cl)C1O (centres unmarked) [Compound 209]
MIC [1]: 0.5 µg/mL (≈ 0.282 µM)
MIC [2]: 0.5 µg/mL (≈ 0.282 µM)
MIC [3]: ≤ 0.06 µg/mL
MIC [4]: 1 µg/mL (≈ 0.564 µM)
MIC [5]: 1 µg/mL (≈ 0.564 µM)
MIC [6]: 1 µg/mL (≈ 0.564 µM)
MIC [7]: ≤ 0.06 µg/mL
MIC [8]: 1 µg/mL (≈ 0.564 µM)
MIC [9]: 1 µg/mL (≈ 0.564 µM)
MIC [10]: ≤ 0.06 µg/mL
MIC (Entercoccus faecium 180): ≤ 0.06 µg/mL
MIC (Entercoccus faecium 2041): ≤ 0.06 µg/mL
MIC [11]: 1 µg/mL (≈ 0.564 µM)
MIC [12]: 16 µg/mL (≈ 9.03 µM)
MIC [13]: 0.15 µg/mL (≈ 0.0846 µM)
MIC [14]: 0.5 µg/mL (≈ 0.282 µM)
MIC [15]: 1 µg/mL (≈ 0.564 µM)
MIC [16]: ≤ 0.06 µg/mL
mean geometric MIC, Vancomycin Resistant Strains [17]: 1.2 µg/mL
mean geometric MIC, Vancomycin Sensitive Strains [18]: 0.136 µg/mL

CNC(CC(C)C)C(=O)NC1C(=O)NC(CC(N)=O)C(=O)NC2C(=O)NC3C(=O)NC(C(=O)NC(C(=O)O)c4cc(O)cc(O)c4-c4cc3ccc4O)C(OC3CC(C)(N)C(O)C(C)O3)c3ccc(c(Cl)c3)Oc3cc2cc(c3OC2OC(CO)C(O)C(O)C2OC2CC(C)(NCc3ccc(OC(F)F)cc3)C(O)C(C)O2)Oc2ccc(cc2Cl)C1O (centres unmarked) [Compound 72]
MIC [1]: ≤ 0.06 µg/mL
MIC [2]: ≤ 0.06 µg/mL
MIC [3]: ≤ 0.06 µg/mL
MIC (Entercoccus faecium 276): ≤ 0.06 µg/mL
MIC [4]: 2 µg/mL (≈ 1.14 µM)
MIC [5]: 1 µg/mL (≈ 0.572 µM)
MIC [6]: ≤ 0.06 µg/mL
MIC [7]: ≤ 0.06 µg/mL
MIC [19]: 1 µg/mL (≈ 0.572 µM)
MIC (Entercoccus faecium 180): 0.5 µg/mL (≈ 0.286 µM)
MIC (Entercoccus faecium 2041): ≤ 0.06 µg/mL
MIC [11]: 4 µg/mL (≈ 2.29 µM)
MIC [12]: 32 µg/mL (≈ 18.3 µM)
MIC [14]: 1 µg/mL (≈ 0.572 µM)
MIC [15]: 4 µg/mL (≈ 2.29 µM)
mean geometric MIC, Vancomycin Resistant Strains [17]: 4.7 µg/mL
mean geometric MIC, Vancomycin Sensitive Strains [18]: 0.28 µg/mL

CNC(CC(C)C)C(=O)NC1C(=O)NC(CC(N)=O)C(=O)NC2C(=O)NC3C(=O)NC(C(=O)NC(C(=O)O)c4cc(O)cc(O)c4-c4cc3ccc4O)C(O)c3ccc(c(Cl)c3)Oc3cc2cc(c3OC2OC(CO)C(O)C(O)C2OC2CC(C)(NCc3ccc(-c4ccccc4)cc3)C(O)C(C)O2)Oc2ccc(cc2Cl)C1O (centres unmarked) [Compound 181]
MIC [1]: ≤ 0.06 µg/mL
MIC [2]: ≤ 0.06 µg/mL
MIC [3]: ≤ 0.06 µg/mL
MIC (Entercoccus faecium 276): 2 µg/mL (≈ 1.24 µM)
MIC [4]: ≤ 0.06 µg/mL
MIC [5]: ≤ 0.06 µg/mL
MIC [6]: ≤ 0.06 µg/mL
MIC [7]: ≤ 0.06 µg/mL
MIC [19]: ≤ 0.06 µg/mL
MIC [8]: ≤ 0.06 µg/mL
MIC [9]: ≤ 0.06 µg/mL
MIC [10]: ≤ 0.06 µg/mL
MIC (Entercoccus faecium 180): 4 µg/mL (≈ 2.48 µM)
MIC [11]: ≤ 0.06 µg/mL
MIC [12]: 32 µg/mL (≈ 19.8 µM)
MIC [14]: 0.25 µg/mL (≈ 0.155 µM)
MIC [15]: 1 µg/mL (≈ 0.619 µM)
MIC [16]: ≤ 0.06 µg/mL
mean geometric MIC, Vancomycin Resistant Strains [17]: 8.0 µg/mL
mean geometric MIC, Vancomycin Sensitive Strains [18]: 0.060 µg/mL

CNC(CC(C)C)C(=O)NC1C(=O)NC(CC(N)=O)C(=O)NC2C(=O)NC3C(=O)NC(C(=O)NC(C(=O)O)c4cc(O)cc(O)c4-c4cc3ccc4O)C(OC3CC(C)(N)C(O)C(C)O3)c3ccc(c(Cl)c3)Oc3cc2cc(c3OC2OC(CO)C(O)C(O)C2OC2CC(C)(NCCc3ccc4ccccc4c3)C(O)C(C)O2)Oc2ccc(cc2Cl)C1O (centres unmarked) [Compound 179]
MIC [3]: ≤ 0.06 µg/mL
MIC (Entercoccus faecium 276): ≤ 0.06 µg/mL
MIC [6]: ≤ 0.06 µg/mL
MIC [7]: ≤ 0.06 µg/mL
MIC [19]: 1 µg/mL (≈ 0.573 µM)
MIC [8]: ≤ 0.06 µg/mL
MIC [9]: ≤ 0.06 µg/mL
MIC [10]: ≤ 0.06 µg/mL
MIC (Entercoccus faecium 180): ≤ 0.06 µg/mL
MIC (Entercoccus faecium 2041): ≤ 0.06 µg/mL
MIC [11]: 1 µg/mL (≈ 0.573 µM)
MIC [12]: 4 µg/mL (≈ 2.29 µM)
MIC [14]: 0.5 µg/mL (≈ 0.286 µM)
MIC [15]: 1 µg/mL (≈ 0.573 µM)
MIC [16]: ≤ 0.06 µg/mL
mean geometric MIC, Vancomycin Resistant Strains [17]: 1.7 µg/mL
mean geometric MIC, Vancomycin Sensitive Strains [18]: 0.060 µg/mL
